For one data set, the species on record is Canis familiaris.
Assay: not given
To be noted: dog, in vivo, po, 0.2 mg/kg.
For the compound `CN(C)Cc1nccn1-c1ccc(NC(=O)c2cc(C(F)(F)F)nn2-c2ccc3onc(N)c3c2)c(F)c1` [RAZAXABAN], the t1/2 came out at 3.4 h.

Test system in another data set: not listed separately
In words: in vivo. To be noted: dog, iv, 0.5 mg/kg.
In the case of `COc1ccc(-n2nc(S(C)(=O)=O)c3c2C(=O)N(c2ccc(C4(Cn5ccnc5C)CC4)cc2)CC3)cc1.O=C(O)C(F)(F)F`, the Vd worked out at 4 L/kg.

Consider `COc1ccc(-n2nc(C(N)=O)c3c2C(=O)N(c2ccc(C4(CN5CCCC5)CC4)cc2)CC3)cc1.O=C(O)C(F)(F)F`, for which the Vd was 7.1 L/kg.

`COc1ccc(N2N=C(S(C)(=O)=O)C3CCN(c4ccc(C5(CN6CCCC6)CC5)cc4)C(=O)C32)cc1.O=C(O)C(F)(F)F` (centres undefined) yielded a Vd of 7.7 L/kg.

Regarding `CNC1(c2ccc(N3CCc4c(C(N)=O)nn(-c5ccc(OC)cc5)c4C3=O)cc2)CC1.O=C(O)C(F)(F)F`, the Vd turned out to be 4.4 L/kg.

As to `COc1ccc(-n2nc(C(N)=O)c3c2C(=O)N(c2ccc(C4(CC(N)=O)CC4)cc2)CC3)cc1.O=C(O)C(F)(F)F`, the Vd turned out to be 0.65 L/kg.

Consider `COc1ccc(-n2nc(C(N)=O)c3c2C(=O)N(c2ccc(C4(N(C)CCO)CC4)cc2)CC3)cc1.O=C(O)C(F)(F)F`, for which the Vd was 4.1 L/kg.

The compound `COc1ccc(-n2nc(S(C)(=O)=O)c3c2C(=O)N(c2ccc(C4(CN5CCOCC5)CC4)cc2)CC3)cc1.O=C(O)C(F)(F)F` registered a Vd of 1.9 L/kg.

In turn, `COc1ccc(-n2nc(C(N)=O)c3c2C(=O)N(c2ccc(C4(CN5CCCC5=O)CC4)cc2)CC3)cc1.O=C(O)C(F)(F)F` registered a Vd of 0.2 L/kg.

Take `COc1ccc(-n2nc(C#N)c3c2C(=O)N(c2ccc(C4(CN(C)C)CC4)cc2)CC3)cc1.O=C(O)C(F)(F)F`: the Vd worked out at 11.7 L/kg.

For the compound `COc1ccc(-n2nc(C(N)=O)c3c2C(=O)N(c2ccc(N4CCCCC4=O)cc2)CC3)cc1` [APIXABAN], the Vd is 0.2 L/kg.

Test system in a further data set: not listed separately
In words: in vivo. To be noted: dog, iv, 0.5 mg/kg. This is another data set of the same source.
For the compound `COc1ccc(-n2nc(S(C)(=O)=O)c3c2C(=O)N(c2ccc(C4(Cn5ccnc5C)CC4)cc2)CC3)cc1.O=C(O)C(F)(F)F`, the clearance was 70 mL/min/kg.

Take `COc1ccc(-n2nc(C(N)=O)c3c2C(=O)N(c2ccc(C4(CN5CCCC5)CC4)cc2)CC3)cc1.O=C(O)C(F)(F)F`: the clearance was 28.3 mL/min/kg.

With `COc1ccc(N2N=C(S(C)(=O)=O)C3CCN(c4ccc(C5(CN6CCCC6)CC5)cc4)C(=O)C32)cc1.O=C(O)C(F)(F)F` (centres undefined), the clearance is 55 mL/min/kg.

`CNC1(c2ccc(N3CCc4c(C(N)=O)nn(-c5ccc(OC)cc5)c4C3=O)cc2)CC1.O=C(O)C(F)(F)F` gave a clearance of 30 mL/min/kg.

Regarding `COc1ccc(-n2nc(C(N)=O)c3c2C(=O)N(c2ccc(C4(CC(N)=O)CC4)cc2)CC3)cc1.O=C(O)C(F)(F)F`, the clearance was 8.17 mL/min/kg.

In turn, `COc1ccc(-n2nc(C(N)=O)c3c2C(=O)N(c2ccc(C4(N(C)CCO)CC4)cc2)CC3)cc1.O=C(O)C(F)(F)F` gave a clearance of 20 mL/min/kg.

On to `COc1ccc(-n2nc(S(C)(=O)=O)c3c2C(=O)N(c2ccc(C4(CN5CCOCC5)CC4)cc2)CC3)cc1.O=C(O)C(F)(F)F`, for which the clearance was 13.3 mL/min/kg.

On to `COc1ccc(-n2nc(C(N)=O)c3c2C(=O)N(c2ccc(C4(CN5CCCC5=O)CC4)cc2)CC3)cc1.O=C(O)C(F)(F)F`, for which the clearance was 4.17 mL/min/kg.

In turn, `COc1ccc(-n2nc(C#N)c3c2C(=O)N(c2ccc(C4(CN(C)C)CC4)cc2)CC3)cc1.O=C(O)C(F)(F)F` had a clearance of 22.8 mL/min/kg.

For the compound `COc1ccc(-n2nc(C(N)=O)c3c2C(=O)N(c2ccc(N4CCCCC4=O)cc2)CC3)cc1` [APIXABAN], the clearance is 0.333 mL/min/kg.

Test system in another data set: not listed separately
In words: in vivo. To be noted: dog, po, 0.2 mg/kg.
`COc1ccc(-n2nc(C(N)=O)c3c2C(=O)N(c2ccc(C4(CN5CCCC5)CC4)cc2)CC3)cc1.O=C(O)C(F)(F)F` gave a half-life of 4 h.

Consider `COc1ccc(N2N=C(S(C)(=O)=O)C3CCN(c4ccc(C5(CN6CCCC6)CC5)cc4)C(=O)C32)cc1.O=C(O)C(F)(F)F` (centres undefined), for which the half-life is 2.3 h.

Regarding `CNC1(c2ccc(N3CCc4c(C(N)=O)nn(-c5ccc(OC)cc5)c4C3=O)cc2)CC1.O=C(O)C(F)(F)F`, the half-life was 1.6 h.

`COc1ccc(-n2nc(C(N)=O)c3c2C(=O)N(c2ccc(C4(CC(N)=O)CC4)cc2)CC3)cc1.O=C(O)C(F)(F)F` had a half-life of 1.9 h.

`COc1ccc(-n2nc(C(N)=O)c3c2C(=O)N(c2ccc(C4(N(C)CCO)CC4)cc2)CC3)cc1.O=C(O)C(F)(F)F` showed a half-life of 4.3 h.

In the case of `COc1ccc(-n2nc(S(C)(=O)=O)c3c2C(=O)N(c2ccc(C4(CN5CCOCC5)CC4)cc2)CC3)cc1.O=C(O)C(F)(F)F`, the half-life was 4 h.

Consider `COc1ccc(-n2nc(C(N)=O)c3c2C(=O)N(c2ccc(C4(CN5CCCC5=O)CC4)cc2)CC3)cc1.O=C(O)C(F)(F)F`, for which the half-life is 0.99 h.

In the case of `COc1ccc(-n2nc(C#N)c3c2C(=O)N(c2ccc(C4(CN(C)C)CC4)cc2)CC3)cc1.O=C(O)C(F)(F)F`, the half-life is 6.4 h.

Test system in a further data set: not listed separately
Nature of the data set: in vivo. To be noted: dog, po, 0.2 mg/kg. The source holds these as a separate data set.
`COc1ccc(-n2nc(S(C)(=O)=O)c3c2C(=O)N(c2ccc(C4(Cn5ccnc5C)CC4)cc2)CC3)cc1.O=C(O)C(F)(F)F` came in with a bioavailability of 0.2%.

In turn, `COc1ccc(-n2nc(C(N)=O)c3c2C(=O)N(c2ccc(C4(CN5CCCC5)CC4)cc2)CC3)cc1.O=C(O)C(F)(F)F` displayed a bioavailability of 6%.

For the compound `COc1ccc(N2N=C(S(C)(=O)=O)C3CCN(c4ccc(C5(CN6CCCC6)CC5)cc4)C(=O)C32)cc1.O=C(O)C(F)(F)F` (centres undefined), the bioavailability was found to be 100%.

In turn, `CNC1(c2ccc(N3CCc4c(C(N)=O)nn(-c5ccc(OC)cc5)c4C3=O)cc2)CC1.O=C(O)C(F)(F)F` had a bioavailability of 15%.

`COc1ccc(-n2nc(C(N)=O)c3c2C(=O)N(c2ccc(C4(CC(N)=O)CC4)cc2)CC3)cc1.O=C(O)C(F)(F)F` had a bioavailability of 27%.

Take `COc1ccc(-n2nc(C(N)=O)c3c2C(=O)N(c2ccc(C4(N(C)CCO)CC4)cc2)CC3)cc1.O=C(O)C(F)(F)F`: the bioavailability came out at 67%.

The compound `COc1ccc(-n2nc(S(C)(=O)=O)c3c2C(=O)N(c2ccc(C4(CN5CCOCC5)CC4)cc2)CC3)cc1.O=C(O)C(F)(F)F` returned a bioavailability of 61%.

On to `COc1ccc(-n2nc(C(N)=O)c3c2C(=O)N(c2ccc(C4(CN5CCCC5=O)CC4)cc2)CC3)cc1.O=C(O)C(F)(F)F`, for which the bioavailability is 3.1%.

Consider `COc1ccc(-n2nc(C#N)c3c2C(=O)N(c2ccc(C4(CN(C)C)CC4)cc2)CC3)cc1.O=C(O)C(F)(F)F`, for which the bioavailability was determined as 41%.

Test system in a further data set: not listed separately
Nature of the data set: physchem. To be noted: octanol/water.
The compound `COc1ccc(-n2nc(C(N)=O)c3c2C(=O)N(c2ccc(C4(CN5CCOCC5)CC4)cc2)CC3)cc1` showed a logP of 3.3.

The compound `COc1ccc(-n2nc(C#N)c3c2C(=O)N(c2ccc(C4(CN5CCOCC5)CC4)cc2)CC3)cc1` yielded a logP of 4.

`CNCC1(c2ccc(N3CCc4c(C(F)(F)F)nn(-c5ccc(OC)cc5)c4C3=O)cc2)CC1` yielded a logP of 3.2.

Compound `COc1ccc(-n2nc(C(F)(F)F)c3c2C(=O)N(c2ccc(C4(CN5CCCC5)CC4)cc2)CC3)cc1` registered a logP of 3.4.

The compound `COc1ccc(-n2nc(C(F)(F)F)c3c2C(=O)N(c2ccc(C4(CN(C)C)CC4)cc2)CC3)cc1` gave a logP of 3.4.

Turning to `COc1ccc(-n2nc(C#N)c3c2C(=O)N(c2ccc(C4(CN(C)C)CC4)cc2)CC3)cc1.O=C(O)C(F)(F)F`, the logP turned out to be 2.5.

Test system in a further data set: not listed separately
Nature of the data set: in vitro. To be noted: human, liver microsomes. Background: Liver microsomes are a subcellular fraction often used to study metabolism.
On to `COc1ccc(-n2nc(S(C)(=O)=O)c3c2C(=O)N(c2ccc(C4(Cn5ccnc5C)CC4)cc2)CC3)cc1.O=C(O)C(F)(F)F`, for which the half-life was found to be 0.0833 h.

Take `COc1ccc(-n2nc(C(N)=O)c3c2C(=O)N(c2ccc(C4(CN5CCCC5)CC4)cc2)CC3)cc1.O=C(O)C(F)(F)F`: the half-life was over 3.33 h.

As to `COc1ccc(N2N=C(S(C)(=O)=O)C3CCN(c4ccc(C5(CN6CCCC6)CC5)cc4)C(=O)C32)cc1.O=C(O)C(F)(F)F` (centres undefined), the half-life came out at 0.617 h.

`CNC1(c2ccc(N3CCc4c(C(N)=O)nn(-c5ccc(OC)cc5)c4C3=O)cc2)CC1.O=C(O)C(F)(F)F` displayed a half-life of 2.43 h.

For the compound `COc1ccc(-n2nc(C(N)=O)c3c2C(=O)N(c2ccc(C4(CC(N)=O)CC4)cc2)CC3)cc1.O=C(O)C(F)(F)F`, the half-life turned out to be 1.62 h.

As for `COc1ccc(-n2nc(C(N)=O)c3c2C(=O)N(c2ccc(C4(N(C)CCO)CC4)cc2)CC3)cc1.O=C(O)C(F)(F)F`, the half-life was found to be 0.783 h.

Regarding `COc1ccc(-n2nc(S(C)(=O)=O)c3c2C(=O)N(c2ccc(C4(CN5CCOCC5)CC4)cc2)CC3)cc1.O=C(O)C(F)(F)F`, the half-life amounted to 0.417 h.

`COc1ccc(-n2nc(C(N)=O)c3c2C(=O)N(c2ccc(C4(CN5CCCC5=O)CC4)cc2)CC3)cc1.O=C(O)C(F)(F)F` came in with a half-life of 0.167 h.

`COc1ccc(-n2nc(C#N)c3c2C(=O)N(c2ccc(C4(CN(C)C)CC4)cc2)CC3)cc1.O=C(O)C(F)(F)F` displayed a half-life of 2.97 h.

Test system in another data set: not listed separately
In words: in vitro. To be noted: dog, liver microsomes.
`COc1ccc(-n2nc(C(N)=O)c3c2C(=O)N(c2ccc(C4(CN5CCCC5)CC4)cc2)CC3)cc1.O=C(O)C(F)(F)F` gave a half-life of 1 h.

As to `CNC1(c2ccc(N3CCc4c(C(N)=O)nn(-c5ccc(OC)cc5)c4C3=O)cc2)CC1.O=C(O)C(F)(F)F`, the half-life was 0.6 h.

As for `COc1ccc(-n2nc(C(N)=O)c3c2C(=O)N(c2ccc(C4(CC(N)=O)CC4)cc2)CC3)cc1.O=C(O)C(F)(F)F`, the half-life was 1.65 h.

Take `COc1ccc(-n2nc(C(N)=O)c3c2C(=O)N(c2ccc(C4(N(C)CCO)CC4)cc2)CC3)cc1.O=C(O)C(F)(F)F`: the half-life came out at 3 h.

In turn, `COc1ccc(-n2nc(C(N)=O)c3c2C(=O)N(c2ccc(C4(CN5CCCC5=O)CC4)cc2)CC3)cc1.O=C(O)C(F)(F)F` registered a half-life of 0.183 h.

For `COc1ccc(-n2nc(C#N)c3c2C(=O)N(c2ccc(C4(CN(C)C)CC4)cc2)CC3)cc1.O=C(O)C(F)(F)F`, the half-life came out at 1.22 h.

The term Vd denotes the apparent volume that relates the amount in the body to the concentration in plasma or blood. Read a high Vd as wide distribution into tissue. As usually defined, the clearance is a measure of how efficiently the substance is removed, as volume per time. Higher therefore signals efficient removal. One may read the half-life as the time in which the quantity being followed falls by half. Low values mean rapid decline, high ones slow decline. A word on the bioavailability: it is the share of a dose that reaches the circulation, judged against a reference dose that is usually intravenous. A high value points to much systemic uptake. In general, logP refers to the decadic logarithm of the partition coefficient of the neutral form, usually between octanol and water. A low value points to lower lipophilicity.

Source of the values: ChEMBL document CHEMBL1154516, “Highly efficacious factor Xa inhibitors containing alpha-substituted phenylcycloalkyl P4 moieties” (Bioorg Med Chem Lett, 2009).
